Results from patent US20070148154A1, “Use of superoxide dismutase mimetics and reductase gultatione in the form of anticancer drugs” (UNIVERSITE RENE DESCARTES (PARIS V), priority 2004, published 2007).

Experiments:
[1] = tested on: CT26 (mouse colon carcinoma); experiment: In vitro cell proliferation assay ([3H]-thymidine); type: cell-based; details: for decrease in tumor cell proliferation, antitumor agent alone: no antioxidant
Experimental: (§4) In vitro cell proliferation assays were carried out on the following cell lines: CT26 (mouse colon carcinoma, ATCC (American Type Culture Collection) No. 2638), Hepa 1-6 (mouse liver hepatoma, ATCC No. 1830), A549 (human lung carcinoma, ATCC No. 185).
(§5) The cell proliferation is determined by incubating the cells for 16 hours with [^3H]-thymidine (1 μCi/well).

Hepa 1-6 tumor cells = experiment: In vitro viability test (MTT); type: cell-based, mouse; details: for viability reduced by: 400 μM, 48 h
Experimental: (§6) In vitro viability tests, in response to the treatment with NAC, CuDIPS, MnTBAP or MnDPDP, were carried out on the cell lines of Example 1 and on normal human leukocytes. The latter were obtained from normal volunteers, after informed consent, by taking venous blood samples collected on an anticoagulant (lithium-heparinate). The red blood cells were lysed by osmotic shock using a hypotonic solution of potassium acetate and the leukocytes were cultured under the conditions described in Example 1.
(§7) For the viability test, the cells (2×10^4 cells/well) were seeded into 96-well plates (COSTAR, Corning Inc. NY, USA) and incubated for 48 hours in complete medium supplemented with increasing concentrations, from 0 to 400 μm, of NAC, of MnTBAP, of CuDIPS or of MnDPDP. The cell viability was evaluated by reduction of a methylthiazoletetrazolium salt (MTT; SIGMA) into formazan. The cells were exposed to 20 μl of MTT (5 mg/ml in PBS) and incubated for 4 h at 37° C. 150 μl of medium were then removed from each well and the reaction was visualized by the addition of 100 μl of DMSO (SIGMA). The absorbance was analyzed for each well at 550 nm and at 630 nm with an ELISA plate reader. The number of viable cells was determined by the difference between the absorbance at 550 nm and the absorbance at 630 nm.
(§8) The viability tests were carried out on the CT26, Hepa 16 and A549 tumor lines, and on normal human leukocytes, according to the protocol described in Example 2.

[2] = tested on: Hepa 1-6 (mouse liver hepatoma); experiment: In vitro cell proliferation assay ([3H]-thymidine); type: cell-based; details: for decrease in tumor cell proliferation, antitumor agent alone: no antioxidant
Experimental: as §4, §5

normal human leukocytes = experiment: In vitro viability test (MTT); details: for decrease in viability of normal leukocytes, antitumor agent alone: no antioxidant; for decrease in cell viability, maximum / effect on viability of normal human leukocytes: 0 to 400 μM, 48 h; for effect on the cytotoxic effect of taxol on normal leukocytes: with 20 μM taxol; for effect on the cytotoxic effect of taxol on normal leukocytes / effect on the cytotoxic effect of oxaliplatin on normal leukocytes / effect on the cytotoxic effect of 5-FU on normal leukocytes: increasing concentrations of antioxidant; for effect on the cytotoxic effect of oxaliplatin on normal leukocytes: with 1 mM oxaliplatin; for effect on the cytotoxic effect of 5-FU on normal leukocytes: with 40 mM 5-FU
Experimental: as §6, §7, §8

[3] = tested on: A549 (human lung carcinoma); experiment: In vitro cell proliferation assay ([3H]-thymidine); type: cell-based; details: for decrease in tumor cell proliferation, antitumor agent alone: no antioxidant
Experimental: as §4, §5

CT26 tumor cells = experiment: In vitro viability test (MTT); type: cell-based, mouse; details: for viability reduced by: 400 μM, 48 h
Experimental: as §6, §7, §8

A549 tumor cells = experiment: In vitro viability test (MTT); type: cell-based, human; details: for viability reduced by: 400 μM, 48 h
Experimental: as §6, §7, §8

[4] = tested on: CT26 carcinoma tumor cells in BALB/c mice; experiment: In vivo antitumor activity, subcutaneous CT26 tumors; set-up: species or system mouse; details: for decrease in tumor volume at one month compared with the nontreated animals / decrease in tumor volume at one month compared with animals treated only with oxaliplatin: 10 mg/kg i.p.; for decrease in tumor volume at one month compared with the nontreated animals: no oxaliplatin; for decrease in tumor volume at one month compared with animals treated only with oxaliplatin: plus oxaliplatin 20 mg/kg
Experimental: (§1) The in vivo antitumor activity of various antioxidant treatments was estimated. For these experiments, female six- to eight-week-old BALB/c (for the injection of CT-26 tumor cells) or C57/BL6 (for the injection of Hepa 1-6 tumor cells) mice were used (IFFA CREDO, L'Arbresles, France). Two million tumor cells were injected into the back of the animals subcutaneously. When the size of the tumor reached 200 to 500 mm^3, the animals were given a single injection of 20 mg/kg of oxaliplatin (ELOXATIN®) or of a saline solution.
(§2) The mice were then treated intraperitoneally, two hours after the injection of oxaliplatin or of saline solution, with 10 mg/kg of mangafodipir, of MnTBAP or of CuDIPS, or with 150 mg/kg of NAC, or with a saline solution. The injection of the various antioxidants was continued for one month (three injections per week at the same doses). A group of mice inoculated with tumor cells was not treated.
(§3) The size of the tumors was measured every three days. The tumor volume was calculated as follows: VT (mm^3)=(L×W^2)/2, where L is the longest dimension and W the shortest dimension of the tumor in mm. Fifteen mice were included in each group.

[5] = tested on: Hepa 1-6, CT26 and A549 tumor cells; experiment: In vitro cell proliferation assay ([3H]-thymidine), result stated for the tumor lines together; details: for reduction in cell proliferation: 400 μM, 48 h incubation; for effect on the cytostatic (antiproliferative) effect of oxaliplatin: with 10 μM oxaliplatin; for effect on the cytostatic (antiproliferative) effect of oxaliplatin / effect on the cytostatic effect of taxol / effect on the cytostatic effect of 5-FU: increasing concentrations of antioxidant; for effect on the cytostatic effect of taxol: with 10 μM taxol; for effect on the cytostatic effect of 5-FU: with 50 μM 5-FU
Experimental: as §4, §5
The following antitumor molecules: oxaliplatin (belonging to the cisplatin family); taxol; 5-fluorouracil; which are known to induce ROS production in tumor cells, were used. For each of these molecules, cell proliferation assays and cell viability tests were carried out, in the absence of antioxidant molecules, or in the presence of increasing concentrations of NAC, of MnTBAP, of CuDIPS or of MnDPDP.

[6] = tested on: Hepa 1-6 cells in C57BL/6 mice; experiment: In vivo antitumor activity, subcutaneous Hepa 1-6 tumors; set-up: species or system mouse; details: for decrease in tumor volume at one month compared with the nontreated animals: no oxaliplatin; for effect on the inhibitory (antitumor) effect of oxaliplatin on tumor growth: mice treated with oxaliplatin 20 mg/kg, NAC 150 mg/kg, SOD mimetics 10 mg/kg i.p.
Experimental: as §1, §2, §3

[7] = tested on: Hepa 1-6, CT26 and A549 tumor cells; experiment: In vitro viability test (MTT), result stated for the tumor lines together; details: for effect on the cytotoxic effect of oxaliplatin on tumor cells: with 10 μM oxaliplatin; for effect on the cytotoxic effect of oxaliplatin on tumor cells / effect on the cytotoxic activity of taxol on tumor cells / effect on the cytotoxic activity of 5-FU on tumor cells: increasing concentrations of antioxidant; for effect on the cytotoxic activity of taxol on tumor cells: with 10 μM taxol; for effect on the cytotoxic activity of 5-FU on tumor cells: with 50 μM 5-FU; for effect on tumor cell viability: 0 to 400 μM, 48 h
Experimental: In vitro viability tests, in response to the treatment with NAC, CuDIPS, MnTBAP or MnDPDP, were carried out on the cell lines of Example 1 and on normal human leukocytes.
as §7
For each of these molecules, cell proliferation assays and cell viability tests were carried out, in the absence of antioxidant molecules, or in the presence of increasing concentrations of NAC, of MnTBAP, of CuDIPS or of MnDPDP.
as §8

plasmid pcDNA3.1 = experiment: Plasmid DNA alteration (agarose gel electrophoresis, densitometry)
Experimental: The purified plasmid pcDNA3.1 (INVITROGEN) was used to analyze the potential DNA alterations in response to the addition of molecules used in cancer chemotherapy in the presence, or in the absence, of antioxidant enzyme modulators. This DNA was then stored at −20° C. in 10 mM TRIS, 1 mM EDTA until its use.
The plasmid DNA was incubated with oxaliplatin at a molar ratio of 0.50 in a final volume of 50 μl. MnTBAP (5 μM), CuDIPS (5 μM), mangafodipir (5 μM) or NAC (5 mM) were then added to the solution. The production of superoxide anion was realized by the addition of 200 μM xanthine (SIGMA) and 1 U of xanthine oxidase (SIGMA). The incubation was carried out in the dark at 37° C. for 24 h. At the end of the incubation period, 10 μl aliquots were subjected to 0.8% agarose gel electrophoresis and detected by ethidium bromide staining. The gels were then analyzed by densitometry (VILBER LOURMAT, Marnes-la-Vallée, France).

[8] = 10 mg/kg i.p., three injections per week

Compound	decrease in tumor volume at one month compared with the nontreated animals ([4]; three injections per week)	decrease in tumor volume at one month compared with animals treated only with oxaliplatin ([4]; three injections per week)	viability reduced by (Hepa 1-6 tumor cells)	reduction in cell proliferation [5]	effect on the cytostatic (antiproliferative) effect of oxaliplatin [5]	effect on the cytostatic effect of taxol [5]	effect on the cytostatic effect of 5-FU [5]	decrease in cell viability, maximum (normal human leukocytes)	effect on the cytotoxic effect of taxol on normal leukocytes (normal human leukocytes)	effect on the cytotoxic effect of oxaliplatin on normal leukocytes (normal human leukocytes)	effect on the cytotoxic effect of 5-FU on normal leukocytes (normal human leukocytes)	decrease in tumor volume at one month compared with the nontreated animals [6, 8]	effect on the inhibitory (antitumor) effect of oxaliplatin on tumor growth [6]	viability reduced by (CT26 tumor cells)	effect on the cytotoxic effect of oxaliplatin on tumor cells [7]	effect on the cytotoxic activity of taxol on tumor cells [7]	effect on the cytotoxic activity of 5-FU on tumor cells [7]	viability reduced by (A549 tumor cells)	effect on viability of normal human leukocytes (normal human leukocytes)	effect on tumor cell viability [7]	further results
O=c1[nH]cc(F)c(=O)[nH]1 [5-FU, 5-fluoro-1,2,3,4-tetrahydropyrimidine-2,5-dione]	–	–	–	–	–	–	–	–	–	–	–	–	–	–	–	–	–	–	–	–	decrease in tumor cell proliferation, antitumor agent alone ([1]; 50 μM): 91%; cytotoxicity at 50 µM (Hepa 1-6 tumor cells; Mus musculus, Hepa1-6, 50 μM, no antioxidant, read-out: decrease in cell viability, antitumor agent alone, on average): 65%; decrease in tumor cell proliferation, antitumor agent alone ([2]; 50 μM): 91%; decrease in viability of normal leukocytes, antitumor agent alone (normal human leukocytes; 40 mM): approximately 19%; decrease in tumor cell proliferation, antitumor agent alone ([3]; 50 μM): 85%; cytotoxicity at 50 µM (CT26 tumor cells; Mus musculus, CT26, 50 μM, no antioxidant, read-out: decrease in cell viability, antitumor agent alone, on average): 85%; cytotoxicity at 50 µM (A549 tumor cells; Homo sapiens, A549, 50 μM, no antioxidant, read-out: decrease in cell viability, antitumor agent alone, on average): 25%
CC(C)c1cc(C(=O)[O-])c(O)c(C(C)C)c1.CC(C)c1cc(C(=O)[O-])c(O)c(C(C)C)c1.[Cu+2] [CuDIPS, Cu[II]-[diisopropylsalicylate]]	28%	31%	74%	~90%	increase	increases	increase	50%	increases	increase	increases	9%	does not significantly increase	85%	increase	increases	increases	50%	–	–	–
O=C(O)c1ccc(-c2c3nc(c(-c4ccc(C(=O)O)cc4)c4ccc([n-]4)c(-c4ccc(C(=O)O)cc4)c4nc(c(-c5ccc(C(=O)O)cc5)c5ccc2[n-]5)C=C4)C=C3)cc1.[Mn+3] [MnTBAP, Mn(III) tetrakis(5,10,15,20-benzoic acid)-porphyrin]	59%	35%	62%	~90%	increase	increases	increase	18%	virtually no influence	increase	only a very weak influence	42%	does not significantly increase	75%	increase	increases	increases	37%	–	–	–
CC(=O)N[C@@H](CS)C(=O)O [NAC, N-acetylcystein]	–	–	–	–	reduces	reduces	inhibits	–	decreases	decreases	decreases	–	completely blocks	–	decreases	does not influence	does not modify	–	no effect	no effect	effect on DNA impairments by mangafodipir, ROS and oxaliplatin (plasmid pcDNA3.1; NAC 5 mM): partially inhibit; effect on DNA impairment by superoxide anions (xanthine/xanthine oxidase) (plasmid pcDNA3.1; NAC 5 mM, X/XO): inhibited; effect on DNA damage by oxaliplatin coincubated with X/XO (plasmid pcDNA3.1; NAC 5 mM, X/XO and low doses of oxaliplatin): decreases the damage; increase in tumor volumes after one month compared with mice which do not receive NAC ([4]; 150 mg/kg i.p., three injections per week, mice not treated with oxaliplatin): 44%; effect on the inhibitory effect of oxaliplatin on tumor growth ([4]; mice treated with oxaliplatin 20 mg/kg, NAC 150 mg/kg i.p.): completely blocks; increase in proliferation ([1]; 400 μM, 48 h incubation): 47%; increase in proliferation ([2]; 100 μM, 48 h incubation): 73%; increase in proliferation ([3]; 400 μM, 48 h incubation): 45%; increase in tumor volumes after one month compared with mice which are not given NAC ([6]; 150 mg/kg i.p., three injections per week): 50%
CC(=O)O[C@H]1C(=O)[C@@]2(C)[C@H]([C@H](OC(=O)c3ccccc3)[C@]3(O)C[C@H](OC(=O)[C@H](O)[C@@H](NC(=O)c4ccccc4)c4ccccc4)C(C)=C1C3(C)C)[C@]1(OC(C)=O)CO[C@@H]1C[C@@H]2O [taxol]	–	–	–	–	–	–	–	–	–	–	–	–	–	–	–	–	–	–	–	–	decrease in tumor cell proliferation, antitumor agent alone ([1]; 10 μM): 71%; cytotoxicity at 10 µM (Hepa 1-6 tumor cells; Mus musculus, Hepa1-6, 10 μM, no antioxidant, read-out: decrease in cell viability, antitumor agent alone, on average): 25%; decrease in tumor cell proliferation, antitumor agent alone ([2]; 10 μM): 65%; decrease in viability of normal leukocytes, antitumor agent alone (normal human leukocytes; 20 μM): approximately 50%; decrease in tumor cell proliferation, antitumor agent alone ([3]; 10 μM): 85%; cytotoxicity at 10 µM (CT26 tumor cells; Mus musculus, CT26, 10 μM, no antioxidant, read-out: decrease in cell viability, antitumor agent alone, on average): 50%; cytotoxicity at 10 µM (A549 tumor cells; Homo sapiens, A549, 10 μM, no antioxidant, read-out: decrease in cell viability, antitumor agent alone, on average): 47%
manganese dipyridoxyl phosphate [MnDPDP]	54%	63%	–	~90%	increase	increases	increase	–	inhibits	inhibits	inhibits	34%	–	–	increase	increases	increases	–	does not influence	reduces, in a dose-dependent manner	effect on the structure of plasmid DNA (form I / II / III) (plasmid pcDNA3.1; 37° C., 24 h, SOD mimetics 5 μM, oxaliplatin maximum at DNA/oxaliplatin ratio 0.5): induces, per se, DNA damage; decrease in tumor volume at one month compared with animals treated only with oxaliplatin ([6]; 10 mg/kg i.p., three injections per week, plus oxaliplatin 20 mg/kg): 63%
